# Data as given in PubChem BioAssay (NCI).
#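 Five concentrations, 48 hours, 96-well plates. GI50: concentration for 50% inhibition of growth. TGI: concentration producing complete growth inhibition.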
# Legend:
# Experiment in all cases: NCI-60 cell line screen, 48 h
# [1] = system: HT29 colon
# [2] = system: SF-268 CNS
# [3] = system: IGROV1 ovarian
# [4] = system: SF-295 CNS
# [5] = system: KM12 colon
# [6] = system: UO-31 renal
# [7] = system: OVCAR-4 ovarian
# [8] = system: MDA-MB-435
# [9] = system: EKVX NSCLC
# [10] = system: T-47D breast
# [11] = system: LOX IMVI melanoma
# [12] = system: MOLT-4 leukemia
# [13] = system: K-562 leukemia
# [14] = system: UACC-62 melanoma
# [15] = system: NCI-H522 lung
# [16] = system: TK-10 renal
# [17] = system: SF-539 CNS
# [18] = system: OVCAR-8 ovarian
# [19] = system: A498 renal
# [20] = system: MDA-MB-468 breast
# [21] = system: HOP-92 NSCLC
# [22] = system: SK-MEL-5 melanoma
# [23] = system: BT-549 breast
# [24] = system: SNB-75 CNS
# [25] = system: HL-60(TB) leukemia
# [26] = system: HS 578T breast
# [27] = system: CCRF-CEM leukemia
# [28] = system: RXF 393 renal
# [29] = system: MDA-MB-231 breast
# [30] = system: NCI-H460 lung
# [31] = system: SNB-19 CNS
# [32] = system: RPMI-8226 leukemia
# [33] = system: M14 melanoma
# [34] = system: OVCAR-5 ovarian
# [35] = system: DU-145 prostate
# [36] = system: 786-0 renal
# [37] = system: HCT-15 colon
# [38] = system: OVCAR-3 ovarian
# [39] = system: SK-MEL-28 melanoma
# [40] = system: NCI/ADR-RES ovarian
# [41] = system: SK-OV-3 ovarian
# [42] = system: NCI-H23 lung
# [43] = system: HOP-62 NSCLC
# [44] = system: SR leukemia
# [45] = system: MALME-3M melanoma
# [46] = system: A549 NSCLC
# [47] = system: NCI-H226 lung
# [48] = system: COLO 205 colon
# [49] = system: SW-620 colon
# [50] = system: HCT-116 colon
# [51] = system: SN12C renal
# [52] = system: U251 CNS
# [53] = system: PC-3 prostate
# [54] = system: SK-MEL-2 melanoma
# [55] = system: MCF7 breast
# [56] = system: UACC-257 melanoma
# [57] = system: ACHN renal
# [58] = system: HCC-2998 colon
# [59] = system: CAKI-1 renal
smiles,measurement,setting,value
Cc1cc2c(cc1Cl)C(=O)/C(=C/c1ccccc1)O2,GI50,[1],29 µM
same,TGI,[1],> 100 µM
same,GI50,[2],25.1 µM
same,TGI,[2],89.2 µM
same,GI50,[3],14 µM
same,TGI,[3],30.9 µM
same,GI50,[4],26 µM
same,TGI,[4],> 100 µM
same,GI50,[5],31.3 µM
same,TGI,[5],> 100 µM
same,GI50,[6],13.9 µM
same,TGI,[6],26.8 µM
same,GI50,[7],16.8 µM
same,TGI,[7],61.3 µM
same,GI50,[8],21.5 µM
same,TGI,[8],59.6 µM
same,GI50,[9],16.5 µM
same,TGI,[9],33.1 µM
same,GI50,[10],13.6 µM
same,TGI,[10],35.3 µM
same,GI50,[11],1.9 µM
same,TGI,[11],4.19 µM
same,GI50,[12],17.9 µM
same,TGI,[12],46 µM
same,GI50,[13],27.6 µM
same,TGI,[13],> 100 µM
same,GI50,[14],15.9 µM
same,TGI,[14],49.9 µM
same,GI50,[15],13 µM
same,TGI,[15],30.7 µM
same,GI50,[16],23.5 µM
same,TGI,[16],40.6 µM
same,GI50,[17],15.7 µM
same,TGI,[17],29.1 µM
same,GI50,[18],16.5 µM
same,TGI,[18],44.1 µM
same,GI50,[19],49.3 µM
same,TGI,[19],> 100 µM
same,GI50,[20],13.2 µM
same,TGI,[20],40.5 µM
same,GI50,[21],17.7 µM
same,TGI,[21],44.6 µM
same,GI50,[22],15.6 µM
same,TGI,[22],30.9 µM
same,GI50,[23],16.7 µM
same,TGI,[23],45.3 µM
same,GI50,[24],9.27 µM
same,TGI,[24],57.7 µM
same,GI50,[25],22.3 µM
same,TGI,[25],46.7 µM
same,GI50,[26],29.2 µM
same,TGI,[26],> 100 µM
same,GI50,[27],18.7 µM
same,TGI,[27],49.2 µM
same,GI50,[28],15 µM
same,TGI,[28],33.6 µM
same,GI50,[29],16.5 µM
same,TGI,[29],39.4 µM
same,GI50,[30],16 µM
same,TGI,[30],35.6 µM
same,GI50,[31],26.5 µM
same,TGI,[31],> 100 µM
same,GI50,[32],22.4 µM
same,TGI,[32],> 100 µM
same,GI50,[33],26 µM
same,TGI,[33],> 100 µM
same,GI50,[34],23.2 µM
same,TGI,[34],> 100 µM
same,GI50,[35],16.9 µM
same,TGI,[35],33.7 µM
same,GI50,[36],20 µM
same,TGI,[36],40.5 µM
same,GI50,[37],14.2 µM
same,TGI,[37],85.4 µM
same,GI50,[38],25.5 µM
same,TGI,[38],93.1 µM
same,GI50,[39],23.7 µM
same,TGI,[39],76.3 µM
same,GI50,[40],15.7 µM
same,TGI,[40],38.6 µM
same,GI50,[41],62.3 µM
same,TGI,[41],> 100 µM
same,GI50,[42],15.4 µM
same,TGI,[42],44.8 µM
same,GI50,[43],22.8 µM
same,TGI,[43],52.8 µM
same,GI50,[44],20.9 µM
same,TGI,[44],54.8 µM
same,GI50,[45],17.4 µM
same,TGI,[45],31.7 µM
same,GI50,[46],16.6 µM
same,TGI,[46],37.8 µM
same,GI50,[47],12.8 µM
same,TGI,[47],31.5 µM
same,GI50,[48],24.6 µM
same,TGI,[48],51.9 µM
same,GI50,[49],16.8 µM
same,TGI,[49],48.3 µM
same,GI50,[50],15.4 µM
same,TGI,[50],62.9 µM
same,GI50,[51],13.9 µM
same,TGI,[51],33.1 µM
same,GI50,[52],13.1 µM
same,TGI,[52],28.7 µM
same,GI50,[53],11.1 µM
same,TGI,[53],70.6 µM
same,GI50,[54],20.6 µM
same,TGI,[54],72 µM
same,GI50,[55],2.7 µM
same,TGI,[55],57.4 µM
same,GI50,[56],23.4 µM
same,TGI,[56],> 100 µM
same,GI50,[57],15.1 µM
same,TGI,[57],29 µM
same,GI50,[58],31.6 µM
same,TGI,[58],> 100 µM
same,GI50,[59],15.5 µM
same,TGI,[59],31.1 µM
